Test results from patent US20040024055A1, “Pharmaceutical composition containing the exract of saururus chinensis baill useful as an anticancer agent and a process for the preparation thereof” (priority 2000, published 2004).
≈ marks a conversion by molar mass, not a printed value.

Tests used:
3T3-L1 = assay: MTT analysis, cytotoxicity against normal cell line; assay type: cell-based, mouse; conditions: Mus musculus, 3T3-L1; MTT, 48 hr
NCI-H69 = assay: MTT analysis, anticancer activity; assay type: cell-based, human; conditions: Homo sapiens, NCI-H69; MTT, 48 hr
BT-549 = assay: MTT analysis, anticancer activity; assay type: cell-based, human; conditions: Homo sapiens, BT-549; MTT, 48 hr
NIH-3T3 [1] = assay: Adhesion of cell to Matri-Gel; assay type: cell-based, mouse
Experimental: (§1) After treating HNP-98701 on tissue culture plate coated with the matrices, cancer cell was attached thereupon. To be specific, 50 μl/ml of […], 2 μg/ml of laminin, 2 μg/ml of collagen and 2 μg/ml of gelatin were coated on the surface of 96-well microplate (Corning Co.) per well. After solidifying for 2 hr, HNP-98701 was added to each well and treated for 1 hr. […] After treating the substances for 1 hr, cancer cell was added to each cell, and it was cultured for 3 hr. […] After culturing these cell lines for 3 hr, they were centrifuged. After collecting biomass only, it was washed with distilled water or PBS buffer solution for three times. […] Then, absorbance was measured at 560-405 nm with automatic Eliza detector (Molecular […] Corp., USA). […] Each experiment was performed for three times repeatedly.

HS-746T = assay: MTT analysis, anticancer activity; assay type: cell-based, human; conditions: Homo sapiens, Hs746T; MTT, 48 hr
HS-578T = assay: MTT analysis, anticancer activity; assay type: cell-based, human; conditions: Homo sapiens, Hs-578T; MTT, 48 hr
SK-MEL-28 = assay: Adhesion of cancer cell to Gelatin; assay type: cell-based, human
Experimental: as §1

SK-Hep-1 = assay: Adhesion of cancer cell to Gelatin; assay type: cell-based, human
Experimental: as §1

Hep-2 = assay: Adhesion of cancer cell to Gelatin; assay type: cell-based, human
Experimental: as §1

NIH-3T3 [2] = assay: Adhesion of cell to Gelatin; assay type: cell-based, mouse
Experimental: as §1

HS27 = assay: MTT analysis, cytotoxicity against normal cell line; assay type: cell-based, human; conditions: Homo sapiens, HS27; MTT, 48 hr
293 = assay: as above; assay type: cell-based, human; conditions: Homo sapiens, HEK293; MTT, 48 hr

Molecule `COc1cccc2c1C(=O)c1c(O)c3c(c(O)c1C2=O)C[C@@](O)(C(=O)CO)C[C@@H]3O[C@H]1C[C@H](N)[C@H](O)[C@H](C)O1` [Adriamycin, adriamycin (doxorubicin)] has an IC50 (3T3-L1) of 2 µg/mL (≈ 3.68 µM), an IC50 (NCI-H69) of 0.168 µg/mL (≈ 0.308 µM) and an IC50 (BT-549) of 0.438 µg/mL (≈ 0.806 µM). The “Adhesion NIH-3T3 (%)” value (NIH-3T3 [1]; 0.1 μg/ml) was 115.00%, the “Adhesion NIH-3T3 (%)” value (NIH-3T3 [1]; 1 μg/ml) was 108.65% and the “Adhesion NIH-3T3 (%)” value (NIH-3T3 [1]; 10 μg/ml) was 104.23%. For the same molecule, the IC50 (HS-746T) was > 50 µg/mL, the IC50 (HS-578T) was 0.469 µg/mL (≈ 0.862 µM) and the “Adhesion SK-MEL-28 (%)” value (SK-MEL-28; 0.1 μg/ml) was 96.39%. For the same molecule, the “Adhesion SK-MEL-28 (%)” value (SK-MEL-28; 1 μg/ml) was 97.42%, the “Adhesion SK-MEL-28 (%)” value (SK-MEL-28; 10 μg/ml) was 97.21% and the “Adhesion SK-Hep-1 (%)” value (SK-Hep-1; 0.1 μg/ml) was 85.77%. The “Adhesion SK-Hep-1 (%)” value (SK-Hep-1; 1 μg/ml) was 76.37%, the “Adhesion SK-Hep-1 (%)” value (SK-Hep-1; 10 μg/ml) was 33.29% and the “Adhesion Hep-2 (%)” value (Hep-2; 0.1 μg/ml) was 104.27%. For the same molecule, the “Adhesion Hep-2 (%)” value (Hep-2; 1 μg/ml) was 98.27%, the “Adhesion Hep-2 (%)” value (Hep-2; 10 μg/ml) was 97.73% and the “Adhesion NIH-3T3 (%)” value (NIH-3T3 [2]; 0.1 μg/ml) was 108.67%. For the same molecule, the “Adhesion NIH-3T3 (%)” value (NIH-3T3 [2]; 1 μg/ml) was 108.86%, the “Adhesion NIH-3T3 (%)” value (NIH-3T3 [2]; 10 μg/ml) was 105.81% and the IC50 (HS27) was 0.218 µg/mL (≈ 0.401 µM). The IC50 293 was < 0.008 µg/mL.
